This passage reports melting point results from patent US7569570B2, “Thienopyrimidines, process for preparing the same and use thereof” (Takeda Pharmaceutical Company Limited, priority 2002, dated 2009).

Broadly, the melting point is the temperature, or range, at which the solid turns liquid.

`CCNC(=O)Nc1ccc(-c2sc3c(c2CN(C)CCN2CCCC2=O)c(=O)n(-c2ccc(OCCOC)cc2)c(=O)n3Cc2c(F)cccc2F)cc1` [Example 34]: the melting point fell in the range of 175 to 177 °C.

In turn, `CCNC(=O)Nc1ccc(-c2sc3c(c2CN(C)CCN2CCCS2(=O)=O)c(=O)n(-c2ccccc2)c(=O)n3Cc2c(F)cccc2F)cc1` [Example 86, N-[4-(1-(2,6-difluorobenzyl)-5-([[2-(1,1-dioxo-2-isothiazolidinyl)ethyl](methyl)amino]methyl}-2,4-dioxo-3-phenyl-1,2,3,4-tetrahydrothieno[2,3-d]pyrimidin-6-yl)phenyl]-N′-ethylurea] showed a melting point of 210 to 211 °C.

For the compound `CCNC(=O)Nc1ccc(-c2sc3c(c2CN(C)CCOC)c(=O)n(-c2ccc(OCc4ccccc4)cc2)c(=O)n3Cc2c(F)cccc2F)cc1` [Example 102], the melting point lay within 223 to 225 °C.

Take `CCNC(=O)Nc1ccc(-c2sc3c(c2CN(C)CCOC)c(=O)n(-c2ccc(N)cc2)c(=O)n3Cc2c(F)cccc2F)cc1` [Example 97, N-[4-(3-(4-aminophenyl)-1-(2,6-difluorobenzyl)-5-{[2-methoxyethyl(methyl)amino]methyl}-2,4-dioxo-1,2,3,4-tetrahydrothieno[2,3-d]pyrimidin-6-yl)phenyl]-N′-ethylurea]: the melting point was 205 to 207 °C.

`CCNC(=O)Nc1ccc(-c2sc3c(c2CN(C)CCN2CCOC2=O)c(=O)n(-c2ccccc2)c(=O)n3Cc2c(F)cccc2F)cc1` [Example 24] showed a melting point of 153 to 155 °C.

The compound `CCNC(=O)Nc1ccc(-c2sc3c(c2CN(C)C[C@@H]2CCCN2S(C)(=O)=O)c(=O)n(-c2ccccc2)c(=O)n3Cc2c(F)cccc2F)cc1` [Example 84] came in with a melting point of 189 to 191 °C.

The compound `CCNC(=O)Nc1ccc(-c2sc3c(c2CN(C)Cc2ccccn2)c(=O)n(-c2ccccc2)c(=O)n3Cc2c(F)cccc2F)cc1` [Example 113] gave a melting point of 203 to 204 °C.

Regarding `CCNC(=O)Nc1ccc(-c2sc3c(c2CN(C)CCC(=O)NC)c(=O)n(-c2ccc(F)cc2)c(=O)n3Cc2c(F)cccc2F)cc1` [Example 30], the melting point lay in the range of 237 to 239 °C.

`CCNC(=O)Nc1ccc(-c2sc3c(c2CNC)c(=O)n(-c2ccc(OCCOC)cc2)c(=O)n3Cc2c(F)cccc2F)cc1` [Example 28, N-(4-{1-(2,6-difluorobenzyl)-3-[4-(2-methoxyethoxy)phenyl]-5-[(methylamino)methyl]-2,4-dioxo-1,2,3,4-tetrahydrothieno[2,3-d]pyrimidin-6-yl}phenyl)-N′-ethylurea] displayed a melting point of 203 to 205 °C.

Compound `CCNC(=O)Nc1ccc(-c2sc3c(c2CN(C)CCN2CCCC2=O)c(=O)n(-c2ccccc2)c(=O)n3Cc2c(F)cccc2F)cc1` [Example 20, N-{4-[1-(2,6-difluorobenzyl)-5-({methyl[2-(2-oxo-1-pyrrolidinyl)ethyl]amino}methyl)-2,4-dioxo-3-phenyl-1,2,3,4-tetrahydrothieno[2,3-d]pyrimidin-6-yl]phenyl}-N′-ethylurea] came in with a melting point of 140 to 142 °C.

In turn, `CCNC(=O)Nc1ccc(-c2sc3c(c2CN(C)CCC(=O)N2CCCC2)c(=O)n(-c2ccccc2)c(=O)n3Cc2c(F)cccc2F)cc1` [Example 94, N-{4-[1-(2,6-difluorobenzyl)-5-({methyl[3-oxo-3-(1-pyrrolidinyl)propyl]amino}methyl)-2,4-dioxo-3-phenyl-1,2,3,4-tetrahydrothieno[2,3-d]pyrimidin-6-yl]phenyl}-N′-ethylurea] gave a melting point of 240 to 244 °C.

Turning to `CCNC(=O)Nc1ccc(-c2sc3c(c2CN(C)CCNC(C)=O)c(=O)n(-c2ccccc2)c(=O)n3Cc2c(F)cccc2F)cc1` [Example 19, N-{2-[{[1-(2,6-difluorobenzyl)-6-(4-{[(ethylamino)carbonyl]amino}phenyl)-2,4-dioxo-3-phenyl-1,2,3,4-tetrahydrothieno[2,3-d]pyrimidin-5-yl]methyl}(methyl)amino]ethyl}acetamide], the melting point lay in the range of 185 to 186 °C.

Take `CCNC(=O)Nc1ccc(-c2sc3c(c2CN(C)CCOCCOCC)c(=O)n(-c2ccccc2)c(=O)n3Cc2c(F)cccc2F)cc1` [Example 111, N-[4-(1-(2,6-difluorobenzyl)-5-[{[2-(2-ethoxy)ethoxy]ethyl(methyl)amino}methyl]-2,4-dioxo-3-phenyl-1,2,3,4-tetrahydrothieno[2,3-d]pyrimidin-6-yl)phenyl]-N′-ethylurea]: the melting point fell in the range of 230 to 233 °C.

As to `CCNC(=O)Nc1ccc(-c2sc3c(c2CN(C)C2CCCC2)c(=O)n(-c2ccccc2)c(=O)n3Cc2c(F)cccc2F)cc1` [Example 93, N-{4-[5-{[cyclopentyl(methyl)amino]methyl}-1-(2,6-difluorobenzyl)-2,4-dioxo-3-phenyl-1,2,3,4-tetrahydrothieno[2,3-d]pyrimidin-6-yl]phenyl}-N′-ethylurea], the melting point was 210 to 213 °C.

For the compound `CCNC(=O)Nc1ccc(-c2sc3c(c2CN(C)CCN(C)Cc2ccccc2)c(=O)n(-c2ccccc2)c(=O)n3Cc2c(F)cccc2F)cc1` [Example 25, N-{4-[5-{[{2-[benzyl(methyl)amino]ethyl}(methyl)amino]methyl}-1-(2,6-difluorobenzyl)-2,4-dioxo-3-phenyl-1,2,3,4-tetrahydrothieno[2,3-d]pyrimidin-6-yl]phenyl}-N′-ethylurea], the melting point lay in the range of 151 to 153 °C.

`CCNC(=O)Nc1ccc(-c2sc3c(c2CN(C)CCN(C)S(C)(=O)=O)c(=O)n(-c2ccc(OCCOC)cc2)c(=O)n3Cc2c(F)cccc2F)cc1` [Example 38, N-{2-[({1-2,6-(difluorobenzyl)-6-(4-{[(ethylamino)carbonyl]amino}phenyl)-3-[4-(2-methoxyethoxy)phenyl]-2,4-dioxo-1,2,3,4-tetrahydrothieno[2,3-d]pyrimidin-5-yl)methyl)(methyl)amino)ethyl)-N-methylsulfonamide]: the melting point lay within 197 to 199 °C.

`CCNC(=O)Nc1ccc(-c2sc3c(c2CN(C)CCN(C)S(C)(=O)=O)c(=O)n(-c2ccccc2)c(=O)n3Cc2c(F)cccc2F)cc1` [Example 23, N-{2-[{[1-(2,6-difluorobenzyl)-6-(4-{[(ethylamino)carbonyl]amino)phenyl)-2,4-dioxo-3-phenyl-1,2,3,4-tetrahydrothieno[2,3-d]pyrimidin-5-yl]methyl}(methyl)amino]ethyl}-N-methylmethanesulfonamide] displayed a melting point of 216 to 218 °C.

As to `CCNC(=O)Nc1ccc(-c2sc3c(c2CN(C)CCC(=O)NC)c(=O)n(-c2ccc(OCCOC)cc2)c(=O)n3Cc2c(F)cccc2F)cc1` [Example 31], the melting point lay in the range of 163 to 165 °C.

In the case of `CCNC(=O)Nc1ccc(-c2sc3c(c2CN(C)CCNS(C)(=O)=O)c(=O)n(-c2ccccc2)c(=O)n3Cc2c(F)cccc2F)cc1` [Example 22, N-{2-[{[1-(2,6-difluorobenzyl)-6-(4-{[(ethylamino)carbonyl]amino}phenyl)-2,4-dioxo-3-phenyl-1,2,3,4-tetrahydrothieno[2,3-d]pyrimidin-5-yl]methyl}(methyl)amino]ethyl}methanesulfonamide], the melting point was in the range of 186 to 188 °C.

Turning to `CCNC(=O)Nc1ccc(-c2sc3c(c2CN(C)CCOC)c(=O)n(-c2ccc(OCCOC(C)=O)cc2)c(=O)n3Cc2c(F)cccc2F)cc1` [Example 107, 2-[4-(1-(2,6-difluorobenzyl)-6-(4-{[(ethylamino)carbonyl]amino}phenyl)-5-([(2-methoxyethyl(methyl)amino)methyl]-2,4-dioxo-1,2,3,4-tetrahydrothieno[2,3-d]pyrimidin-3(2H)-yl}phenoxy)ethyl acetate], the melting point fell in the range of 212 to 215 °C.

In the case of `CCNC(=O)Nc1ccc(-c2sc3c(c2CN(C)CC(=O)OCC)c(=O)n(-c2ccccc2)c(=O)n3Cc2c(F)cccc2F)cc1` [Example 5, ethyl[{[1-(2,6-difluorobenzyl)-6-(4-{[(ethylamino)carbonyl]amino}phenyl)-2,4-dioxo-3-phenyl-1,2,3,4-tetrahydrothieno[2,3-d]pyrimidin-5-yl]methyl}(methyl)amino]acetate], the melting point fell in the range of 208 to 209 °C.

Turning to `CCNC(=O)Nc1ccc(-c2sc3c(c2CN(C)CCCC(=O)OCC)c(=O)n(-c2ccccc2)c(=O)n3Cc2c(F)cccc2F)cc1` [Example 6, ethyl 4-[{[1-(2,6-difluorobenzyl)-6-(4-{[(ethylamino)carbonyl]amino}phenyl)-2,4-dioxo-3-phenyl-1,2,3,4-tetrahydrothieno[2,3-d]pyrimidin-5-yl]methyl}(methyl)amino]butanate], the melting point fell in the range of 203 to 204 °C.

In the case of `CCNC(=O)Nc1ccc(-c2sc3c(c2CN(C)CCOC)c(=O)n(-c2ccc(OCCOC)cc2)c(=O)n3Cc2c(F)cccc2F)cc1` [Example 104], the melting point lay within 215 to 218 °C.

`CCNC(=O)Nc1ccc(-c2sc3c(c2CN(C)CCOC)c(=O)n(-c2ccc(OCCO)cc2)c(=O)n3Cc2c(F)cccc2F)cc1` [Example 108] showed a melting point of 236 to 238 °C.

In turn, `CCNC(=O)Nc1ccc(-c2sc3c(c2CN(C)CCOC)c(=O)n(-c2ccc(NC(C)=O)cc2)c(=O)n3Cc2c(F)cccc2F)cc1` [Example 98, N-[4-(3-(4-acetoaminophenyl)-1-(2,6-difluorobenzyl)-5-{[2-methoxyethyl(methyl)amino]methyl}-2,4-dioxo-1,2,3,4-tetrahydrothieno[2,3-d]pyrimidin-6-yl)phenyl]-N′-ethylurea] had a melting point of 218 to 220 °C.

For the compound `CCNC(=O)Nc1ccc(-c2sc3c(c2CN(C)CCOC)c(=O)n(-c2ccc(OCCNS(C)(=O)=O)cc2)c(=O)n3Cc2c(F)cccc2F)cc1` [Example 106], the melting point fell in the range of 232 to 235 °C.

In turn, `CCNC(=O)Nc1ccc(-c2sc3c(c2CN(C)CCC(=O)OCC)c(=O)n(-c2ccccc2)c(=O)n3Cc2c(F)cccc2F)cc1` [Example 4, ethyl 3-[{[1-(2,6-difluorobenzyl)-6-(4-{[(ethylamino)carbonyl]amino}phenyl)-2,4-dioxo-3-phenyl-1,2,3,4-tetrahydrothieno[2,3-d]pyrimidin-5-yl]methyl}(methyl)amino]propanate] returned a melting point of 198 to 200 °C.

The compound `CCNC(=O)Nc1ccc(-c2sc3c(c2CN(C)CC2CCN(C)C2=O)c(=O)n(-c2ccc(F)cc2)c(=O)n3Cc2c(F)cccc2F)cc1` (stereo not shown) [Example 36, N-(4-[1-(2,6-difluorobenzyl)-3-(4-fluorophenyl)-5-({methyl[(1-methyl-2-oxo-3-pyrrolidinyl)methyl]amino}methyl)-2,4-dioxo-1,2,3,4-tetrahydrothieno[2,3-d]pyrimidin-6-yl]phenyl}-N′-ethylurea] returned a melting point of 233 to 234 °C.
